Measurements taken from patent publication US20060216302A1, “Immunological markers” (priority 2003, published 2006).
Ends that are not written are not given here.

Assays:
human sera = assay: ELISA cross-reactivity of candidate markers with human sera (Example 9); conditions: human serum diluted 1/1000, goat anti-human-HRP, non-specific binding subtracted
Protocol: Four samples of human sera were obtained with appropriate consent. 20 The frozen samples of cell-free sera were thawed and diluted to 1/1000 in phosphate buffered saline at pH 7.0. Aliquots (100 ul) of these diluted antisera were added to ELISA plates pre-adsorbed with the biomarkers as described in Table 1. A goat anti-human-HRP secondary antibody was used to quantitate the amount of antibody bound to the various marker peptides. Non-specific binding (determined by plating antisera onto PVA coated wells) was subtracted from the readings of the individual marker wells.

rats = assay: Antigenicity in rats inoculated with free marker peptides, serum ELISA (Example 8); format: in vivo, rat; conditions: Table 5; for Candidate Marker Antibody Reactivity RBM1: rats inoculated with 1 mg free peptide (not KLH-conjugated) in Freund's incomplete adjuvant, ELISA against RBM1; for Candidate Marker Antibody Reactivity RBM2 / Candidate Marker Antibody Reactivity RBM3 / Candidate Marker Antibody Reactivity RBM4 / Candidate Marker Antibody Reactivity RBM5 / Candidate Marker Antibody Reactivity RBM6 / Candidate Marker Antibody Reactivity RBM7: rats inoculated with free peptide; for Candidate Marker Antibody Reactivity RBM2: ELISA against RBM2; for Candidate Marker Antibody Reactivity RBM3: ELISA against RBM3; for Candidate Marker Antibody Reactivity RBM4: ELISA against RBM4; for Candidate Marker Antibody Reactivity RBM5: ELISA against RBM5; for Candidate Marker Antibody Reactivity RBM6: ELISA against RBM6; for Candidate Marker Antibody Reactivity RBM7: ELISA against RBM7; for Antigenicity (measurable antibody response) of free marker peptide / Interference and cross-reaction with other marker candidates: rats; for Antigenicity (measurable antibody response) of free marker peptide: free peptide not conjugated to KLH; for Interference and cross-reaction with other marker candidates: free peptide
Lewis rats = assay: Antigenicity and cross-reactivity in rats inoculated with marker-KLH conjugates, serum ELISA (Example 7); format: in vivo, rat; conditions: for Candidate Marker Antibody Reactivity RBM1 / Candidate Marker Antibody Reactivity RBM2 / Candidate Marker Antibody Reactivity RBM4 / Candidate Marker Antibody Reactivity RBM5 / Candidate Marker Antibody Reactivity RBM6 / Candidate Marker Antibody Reactivity RBM7: Table 3; for Candidate Marker Antibody Reactivity RBM1: serum (1/100) of Lewis rats inoculated s.c. with 1.0 mg marker-KLH conjugate in Freund's incomplete adjuvant, day 14-21, ELISA wells coated with RBM1; for Candidate Marker Antibody Reactivity RBM2 / Candidate Marker Antibody Reactivity RBM4 / Candidate Marker Antibody Reactivity RBM5 / Candidate Marker Antibody Reactivity RBM6 / Candidate Marker Antibody Reactivity RBM7: serum (1/100) of Lewis rats inoculated with marker-KLH conjugate; for Candidate Marker Antibody Reactivity RBM2: ELISA wells coated with RBM2; for Candidate Marker Antibody Reactivity RBM4: ELISA wells coated with RBM4; for Candidate Marker Antibody Reactivity RBM5: ELISA wells coated with RBM5; for Candidate Marker Antibody Reactivity RBM6: ELISA wells coated with RBM6; for Candidate Marker Antibody Reactivity RBM7: ELISA wells coated with RBM7; for Relative Absorbance ±SE at 405 nm, Candidate Marker RBM1 / Relative Absorbance ±SE at 405 nm, Candidate Marker RBM4 / Relative Absorbance ±SE at 405 nm, Candidate Marker RBM5 / Relative Absorbance ±SE at 405 nm, Candidate Marker RBM6: Table 4, N = 3, rats inoculated with marker-KLH conjugate, ** P < .01; for Relative Absorbance ±SE at 405 nm, Candidate Marker RBM1: ELISA against RBM1; for Relative Absorbance ±SE at 405 nm, Candidate Marker RBM4: ELISA against RBM4; for Relative Absorbance ±SE at 405 nm, Candidate Marker RBM5: ELISA against RBM5; for Relative Absorbance ±SE at 405 nm, Candidate Marker RBM6: ELISA against RBM6; for Cross-reactivity among the candidate markers: text summary of Table 3, rat sera after marker-KLH inoculation
[1] = system: polyclonal sera against a range of infectious agents and hormones; assay: ELISA cross-reactivity screen, whole panel of antisera; format: binding; conditions: whole panel of 12 antisera

Row | Substance | Candidate Marker Antibody Reactivity, Serum Sample 1 (human sera) | Candidate Marker Antibody Reactivity, Serum Sample 2 (human sera) | Candidate Marker Antibody Reactivity, Serum Sample 3 (human sera) | Candidate Marker Antibody Reactivity, Serum Sample 4 (human sera) | Candidate Marker Antibody Reactivity RBM1 (rats) | Candidate Marker Antibody Reactivity RBM2 (rats) | Candidate Marker Antibody Reactivity RBM3 (rats) | Candidate Marker Antibody Reactivity RBM4 (rats) | Candidate Marker Antibody Reactivity RBM5 (rats) | Candidate Marker Antibody Reactivity RBM6 (rats) | Candidate Marker Antibody Reactivity RBM7 (rats) | Antigenicity (measurable antibody response) of free marker peptide (rats) | Candidate Marker Antibody Reactivity RBM1 (Lewis rats) | Candidate Marker Antibody Reactivity RBM2 (Lewis rats) | Candidate Marker Antibody Reactivity RBM4 (Lewis rats) | Candidate Marker Antibody Reactivity RBM5 (Lewis rats) | Relative Absorbance ±SE at 405 nm, Candidate Marker RBM1 (Lewis rats) | Relative Absorbance ±SE at 405 nm, Candidate Marker RBM4 (Lewis rats) | Relative Absorbance ±SE at 405 nm, Candidate Marker RBM5 (Lewis rats) | Relative Absorbance ±SE at 405 nm, Candidate Marker RBM6 (Lewis rats) | also measured
1 | WPHDMCWP [RBM7] | −.11 | .00 | .04 | −.02 | −.10 | .22 | −.06 | −.12 | .06 | −.10 | .63 | sufficiently antigenic to produce a measurable and consistent antibody response | – | – | – | – | – | – | – | – | Interference and cross-reaction with other marker candidates (rats): did not interfere with each other's immune responses nor cross-react with other marker candidates
2 | EGVYVPV [RBM5, peptide derived from the 5→3 reading of the cDNA encoding angiotensin II; T3 prints Glu-Gly-Val-Tyr-Val-His-Pro-Val] | .22 | .21 | −.02 | −.01 | – | – | – | – | – | – | – | – | −.018 | .068 | −.231 | .101 | .57 ± .25 | .15 ± .07 | 1.5 ± .44** | .50 ± .02 | Candidate Marker Antibody Reactivity RBM6 (Lewis rats): .006; Candidate Marker Antibody Reactivity RBM7 (Lewis rats): −.058; Cross-reactivity among the candidate markers (Lewis rats): cross-react weakly, but consistently
3 | YFMYRRYFMYRR [RBM1] | .16 | .01 | .08 | .01 | .00 | .20 | −.05 | −.04 | .1 | −.10 | .14 | failed to produce measurable immunity | – | – | – | – | .55 ± .15** | −.11 ± .14 | .11 ± .05 | .05 ± .07 | –
4 | HWRWRMRMHWRWRMRM [RBM6] | .22 | .24 | −.09 | −.03 | −.07 | .39 | .02 | −.06 | .19 | −.01 | .12 | failed to produce measurable immunity | – | – | – | – | .12 ± .03 | .02 ± .04 | −07 ± .15 | .84 ± .13** | –
5 | HRNYFHRNYF [RBM2] | .26 | .05 | .27 | −.01 | −.02 | 3.34 | −.07 | −.01 | .05 | −.23 | −.05 | sufficiently antigenic to produce a measurable and consistent antibody response | .034 | .219 | −.037 | .041 | – | – | – | – | Interference and cross-reaction with other marker candidates (rats): did not interfere with each other's immune responses nor cross-react with other marker candidates; Candidate Marker Antibody Reactivity RBM6 (Lewis rats): −.006; Candidate Marker Antibody Reactivity RBM7 (Lewis rats): .002; Cross-reactivity among the candidate markers (Lewis rats): cross-react weakly, but consistently
6 | RLAHMYVGKT [RBM4, antisense peptide from angiotensin II complementary DNA, 3→5 direction; KLH conjugate for inoculation] | .08 | .20 | −.16 | −.02 | – | – | – | – | – | – | – | – | −.009 | .020 | .079 | .003 | .21 ± .06 | 2.26 ± .40** | .24 ± .23 | .32 ± .07 | Recognition by any antiserum tested [1]: did not cross-react; Candidate Marker Antibody Reactivity RBM6 (Lewis rats): −.035; Candidate Marker Antibody Reactivity RBM7 (Lewis rats): −.030
7 | WFYMYFWFYMYF [RBM3] | .07 | .05 | −.07 | −.01 | – | – | – | – | – | – | – | – | – | – | – | – | – | – | – | – | –
